# Experimental data taken from patent US20140309280A1, “ASSAYS FOR MICRO-RNA-182 AS A BIOMARKER FOR MUSCLE ATROPHY AND THERAPEUTIC APPLICATIONS” (EMORY UNIVERSITY, priority 2013, published 2014).
# Key:
# [1] = system: gastrocnemius muscle; experiment: Streptozotocin diabetes model of muscle atrophy: FoxO3 mRNA and miR-182 in gastrocnemius muscle; type: in vivo; details: rats, STZ 125 mg/kg single intravenous injection, third day; for decrease of miR-182 in muscle: vs controls
# Procedure: (§1) FoxO3 mRNA (Panels A and C) and miR-182 (Panels B and D) were measured in either cells treated with Dex (1 μM) for 6 h (Panels A and B) or in gastrocnemius muscles of either control or streptozotocin-injected, acutely diabetic rats (Panels C and D). Results are reported as the mean±SEM of the fold-change of the respective control values.
# Whether there is a similar relationship between FoxO3 and miR-182 expression was investigated in vivo in skeletal muscle during atrophy. STZ-induced diabetes mellitus causes muscle atrophy and responses (e.g., increased atrogin-1 expression) that are consistent with FoxO3 activation. Therefore, FoxO3 expression was evaluated during STZ-induced diabetes mellitus by measuring FoxO3 mRNA. FoxO3 mRNA was increased 75% (FIG. 2D) whereas the level of miR-182 was decreased 43% (P<0.05) (FIG. 2D).
# Male rats (˜150 gm) received a single intravenous injection of STZ (125 mg/kg) in citrate buffer. STZ-injected and control rats were pair-fed and on the third day after injection the animals were anesthetized, and the gastrocnemius muscle was harvested. Food was withheld during the night before the tissue harvest to avoid the confounding influences of variable food intake on skeletal muscle protein metabolism. All animal studies were approved by the Emory Institutional Animal Care and Use Committee (IACUC).
# [2] = system: C2C12 myotubes; experiment: FoxO3 mRNA and intracellular miR-182 in C2C12 myotubes treated with Dex to induce atrophy; type: cell-based, Mouse; details: Dex 1 μM, 6 hours
# Procedure: as §1
# To test this, C2C12 myotubes were treated with dexamethasone (Dex), a synthetic glucocorticoid, which induces atrophy, in part, by increasing FoxO3 activity in C2C12 myotubes. […] Simultaneously, the amount of intracellular miR-182 decreased 44% (FIG. 2B).
# Mouse C2C12 myoblasts (American Type Culture Collection, Manassas, Va.) were cultured in growth media [Dulbecco modified Eagle medium plus 10% fetal bovine serum (Atlanta Biologicals, Lawrenceville, Ga.) and 1% penicillin and streptomycin (Invitrogen, Carlsbad, Calif.)] and studied between passage 3 and 7. Myoblasts were grown to ˜95% confluence in a 6-well plate and then differentiated into myotubes by replacing growth media with differentiation media (DMEM supplemented with 2% fetal bovine serum and 1% PS) for 3 days. In some experiments, myotubes were treated with 1 μM Dex for 6 hours before being harvested.
# [3] = system: C2C12 myotubes; experiment: miR-182 in media exosomes released from C2C12 myotubes after Dex; type: cell-based, Mouse; details: Dex 6 h
# Procedure: Fresh differentiation media containing 100 nM Dex or vehicle was added to myotubes for 6 h. Afterwards, RNA was prepared from isolated media exosomes and miR-182, along U6 controls, was measured.
# One mechanism by which microRNAs are protected from degradation is through incorporation into protective exosomes. This has led some to propose that the relative abundance patterns of microRNAs in various tissues and fluids as well as exosomes and other microvesicles are a reflection of underlying pathophysiological processes. Dex administration enhances the exosomal packaging and release of two atrophy-related microRNAs (miR-1 and miR-23a) into the media of C2C12 myotubes. This led us to test whether miR-182 is incorporated into exosomes that are released from myotubes. The amount of miR-182 in exosomes, normalized to U6 small nuclear RNA, is increased 95% in exosomes following Dex treatment to myotubes (FIG. 4). […]
# To quantify exosomal microRNA, exosome-associated RNA, including microRNA, was isolated using a urine exosome RNA isolation kit (Norgen Biotek, Thorolod, ON, Canada) according to the manufacturer's instructions for isolating RNA from extracellular fluids. Subsequent quantitative PCR (qPCR) was performed.
smiles,measurement,setting,value
CN(N=O)C(=O)N[C@H]1C(O)O[C@H](CO)[C@@H](O)[C@@H]1O (mixture of isomers) [streptozotocin],decrease of miR-182 in muscle,[1]; P<0.05,44%
same,decrease of miR-182 in muscle,"[1]; P<0.05, listed as STZ",43%
same,increase of FoxO3 mRNA in muscle,[1]; vs pair-fed controls,75%
"C[C@@H]1C[C@H]2[C@@H]3CCC4=CC(=O)C=C[C@]4(C)[C@@]3(F)[C@@H](O)C[C@]2(C)[C@@]1(O)C(=O)CO [Dexamethasone, dexamethasone]",decrease of intracellular miR-182,[2],63%
same,increase of FoxO3 mRNA,[2],133%
same,decrease of intracellular miR-182,[2]; listed as dexamethasone,44%
same,"increase of miR-182 in exosomes, normalized to U6 small nuclear RNA",[3],95%
